Reference: patent US20250163365A1, “LACTOBACILLUS REUTERI JH53 STRAIN HAVING EXCELLENT ORGANIC ACID RESISTANCE AND CONVERSION OF 1,3-PROPANDIOL FROM GLYCEROL, AND USE THEREOF” (ACTIVON CO., LTD., priority 2021, published 2025)
Values after ≈ are worked out from the molar mass of the structure shown. Where two headings read alike, the source gives them in different places.

What was measured:
[1] = tested on: Lactobacillus reuteri CH53 strain; test: IC50 of Lactobacillus reuteri CH53 strain for metabolites (Example 1); assay type: cell-based
Method: The half-maximal inhibitory concentrations (IC50) of the Lactobacillus reuteri CH53 strain (KCTC13149BP) for major metabolites were measured. […] Thereafter, 1% (v/v) of the strain culture with OD600 nm=8.0 was inoculated into each broth and statically cultured at 37° C. for 24 hours, and the concentration at which the absorbance (OD600 nm) was half of the control was measured.

[2] = tested on: Lactobacillus reuteri CH53 strain; settings: lactic acid and acetic acid mixed in MRS plate medium, anaerobic, 37° C., 24 hours
L. reuteri CH53 = test: IC50 for organic acids, parent strain (Example 3); assay type: cell-based, Lactobacillus reuteri; settings: Limosilactobacillus reuteri
Method: (§1) In order to confirm that the Lactobacillus reuteri JH53 strain of the present invention has enhanced organic acid resistance, the half-maximal inhibitory concentrations (IC50) for organic acids were measured. […] Thereafter, 1% (v/v) of each strain culture with OD600 nm=8.0 was inoculated into each broth and statically cultured at 37° C. for 24 hours, and the concentration at which the absorbance (OD600 nm) was half of the control was measured.

L. reuteri JH53 = test: IC50 for organic acids, mutant strain (Example 3); assay type: cell-based, Lactobacillus reuteri; settings: Limosilactobacillus reuteri, JH53, 24 h, pH 5.5, read-out: IC50 (g/L) L. reuteri JH53
Method: as §1

[3] = tested on: Lactobacillus reuteri CH53 strain; test: Fed-batch culture of CH53 in medium supplemented with organic acid; assay type: cell-based; settings: 10 g/L organic acid added, pH 5.5, fed-batch, 37° C., 100 rpm
Method: Cell growth and 1,3-propanediol production were measured while the Lactobacillus reuteri CH53 strain was fed-batch cultured in a medium supplemented with an organic acid. 3 L of MRS broth containing 20 g/L of glycerol, 10 g/L of proteose peptone NO. […] During culture, glucose and glycerol were continuously fed so that they could be maintained at residual concentrations of 5 to 10 g/L. Thereafter, 1% (v/v) of the strain culture with OD600 nm=8.0 was inoculated into each broth, and the absorbance (OD600 nm) was measured while fed-batch culture was carried out under conditions of 37° C. and 100 rpm. 1 mL of each culture was centrifuged at 13,000 rpm for 5 minutes, and then the supernatant was filtered through a 0.22-μm filter and the concentration of 1,3-propanediol was measured using high-performance liquid chromatography. 1,3-Propanediol production was analyzed by high-performance liquid chromatography equipped with an ion exchange column ([…], Aminex HPX-87H, Bio-Rad) and a differential refraction detector (RID) using 0.25 mM H2SO4 as a mobile phase at a flow rate of 0.6 ml/min.

[4] = Limosilactobacillus reuteri, CH53STRAIN, CH53 strain, MRS broth pH 5.5, static culture 37° C. 24 hours, concentration at which OD600 nm was half of control, read-out: IC50

SMILES	IC50 ([1]; CH53 strain, MRS broth pH 5.5, static culture 37° C. 24 hours, concentration at which OD600 nm was half of control)	Concentration at which CH53 strain could not grow [2]	IC50 ([1]; Limosilactobacillus reuteri, CH53STRAIN, 24 h, pH 5.5)	IC50 (L. reuteri CH53; CH53, 24 h, pH 5.5, read-out: IC50 (g/L) L. reuteri CH53)	IC50 (L. reuteri JH53)	Effect on 1,3-propanediol production of CH53 strain [3]	Effect on cell growth of CH53 strain [3]	IC50 [1, 4]	IC50 (L. reuteri CH53; CH53, MRS broth pH 5.5, static culture 37° C. 24 hours, OD600 nm half of control, read-out: IC50 (g/L) L. reuteri CH53)
OCCCO [1,3-propanediol]	79.8 mg/mL	–	–	–	–	–	–	–	–
CC(=O)O [Acetic acid]	–	≥ 17.5 g/L	17.4 mg/mL	20.6 g/L (≈ 343 mM)	25.6 g/L (≈ 426 mM)	reduced 1,3-propanediol production	did not affect cell growth	–	–
CCO [Ethanol]	–	–	–	–	–	–	–	29.5 mg/mL	–
CC(O)C(=O)O (centres unmarked) [Lactic acid]	–	≥ 35.0 g/L	–	–	36.7 g/L (≈ 407 mM)	reduced 1,3-propanediol production	did not affect cell growth	27.9 mg/mL	31.9 g/L (≈ 354 mM)
